# Source: US11400063B2, “Early administration of low-dose colchicine after myocardial infarction” (INSTITUT DE CARDIOLOGIE DE MONTREAL, priority 2019, dated 2022)
# Experiments:
# [1] = system: patients with stable coronary disease; details: cited from earlier work
# patients with CAD = assay: Meta-analysis of RCTs of colchicine for secondary cardiovascular prevention (pooled); assay type: in vivo, human
# Method: Medline (PUBMED), EMBASE, and Cochrane central were searched to identify RCTs comparing colchicine to placebo or no colchicine for secondary cardiovascular prevention (inception to Sep. 1, 2020). To maximized sensitivity, citation chasing was performed in Google Scholar, Scopus, and Web of Science. Secondary prevention was defined as patients with clinically manifest or established CAD. Query terms included “colchicine”, “coronary artery disease”, “acute coronary syndrome”, “myocardial infarction”, “cardiovascular disease”, “atherosclerosis”, and “secondary prevention”, either separately or in combination.
# RCTs that met the following criteria were included in the meta-analysis: 1) compared daily use of low-dose (0.5 mg) colchicine to placebo or no colchicine for secondary cardiovascular prevention; 2) the study reported at least one of the following outcomes: cardiovascular death, MI, stroke, cardiac arrest, or urgent coronary revascularization; 3) other than the trial medication, patients in both arms were treated in accordance to guideline directed medical therapy; 4) the minimum follow-up was at least 1 year; and 5) trials were published in a peer-reviewed scientific journal. Review articles, editorials, meta-analyses, observational studies, and published abstracts were excluded from the present meta-analysis.
# Using standardized forms, data on study characteristics, patient characteristics, and outcomes were extracted on the intent-to-treat population independently by two reviewers from each eligible study. The Cochrane Collaboration risk-of-bias tool for randomized trials was used to evaluate study quality. The meta-analysis was conducted in accordance to the Preferred Reporting Items for Systematic Reviews and Meta-Analyses (PRISMA) guidelines.
# The primary efficacy endpoint was a composite of cardiovascular death, MI, ischemic stroke, and urgent coronary revascularization. Secondary efficacy endpoints consisted of the components of the primary endpoint, composite of cardiovascular death, MI, and ischemic stroke, as well as deep vein thrombosis or pulmonary embolus, and atrial fibrillation (AF). To maximize consistency in pooling efficacy endpoints among trials, the primary and secondary composite efficacy and stroke endpoints in COLCOT were modified to meet the definition of primary and stroke endpoints of the LoDoCo2 trial. Therefore, adjudicated events of resuscitated cardiac arrest and non-ischemic stroke in COLCOT were excluded from the pooled primary endpoint. The component endpoint of stroke was also restricted to include only ischemic strokes. Incidence rates and hazards ratios (HRs) were calculated for the new primary composite endpoint and ischemic stroke endpoint using individual patient data from COLCOT.
# Safety outcomes were limited to serious adverse events (SAEs) and included all-cause and non-cardiovascular mortality, hospitalization for gastrointestinal event, infection, and pneumonia, as well as diagnosis of cancer. Incidence of SAEs were recalculated for COLCOT using the intent-to-treat population.
# The DerSimonian and Laird random-effects model was used to calculate the pooled HR and corresponding 95% confidence intervals (CI) for primary and secondary endpoints in the overall trial and in subgroup analyses of the primary endpoint. For safety outcomes, the DerSimonian and Laird random-effects model was used to compute risk ratios (RR) and corresponding 95% CIs. Heterogeneity was evaluated with the Higgins I^2 statistic. I^2 values of <25%, 25-75%, and >75% were considered to indicate low, moderate, and high degrees of heterogeneity, respectively. In subgroup analyses, the Qb statistic was calculated to determine inconsistency and variability in the treatment effect between strata. Publication and small study bias were assessed with the Egger's regression test and visually by asymmetry in funnel plots. […]
# [2] = LoDoCo, colchicine vs control (no colchicine)
# [3] = colchicine vs placebo or no colchicine
smiles,measurement,setting,value
"COc1cc2c(c(OC)c1OC)-c1ccc(OC)c(=O)cc1[C@@H](NC(C)=O)CC2 [Colchicine, colchicine]","Myocardial infarction, Events N","[1]; LoDoCo, N = 250, median follow-up 24 months",4 N
same,"Ischemic stroke, HR (95% CI)",[1]; [2],0.23 (0.03-2.03)
same,"Myocardial infarction, HR (95% CI)",[1]; [2],0.25 (0.08-0.76)
same,"Ischemic stroke, Events %",[1]; LoDoCo,0.4%
same,"Ischemic stroke, Events N",[1]; LoDoCo,1 N
same,"Myocardial infarction, Events %",[1]; LoDoCo,1.6%
same,cardiovascular events vs those not receiving colchicine,"[1]; colchicine 0.5 mg once daily, 532 patients, not placebo-controlled",fewer cardiovascular events
same,"AF diagnoses and AF episodes, pooled HR",patients with CAD; [3],0.86
same,"MIs, pooled HR",patients with CAD; [3],0.62
same,"all-cause mortality, pooled RR",patients with CAD; [3],1.04
same,"ischemic strokes, pooled HR",patients with CAD; [3],0.38
same,"non-cardiovascular mortality, pooled RR",patients with CAD; [3],1.38
same,"urgent coronary revascularization, pooled HR",patients with CAD; [3],0.58
same,"primary composite endpoint (cardiovascular mortality, MI, ischemic stroke, urgent coronary revascularization), pooled HR","patients with CAD; colchicine vs placebo or no colchicine, random-effects model",0.68
same,"cardiovascular mortality, difference between arms",patients with CAD; pooled RCTs,no statistically significant difference
same,reduction in the incidence of major cardiovascular events,patients with CAD; pooled RCTs,32%
same,risk reduction for MIs,patients with CAD; pooling HRs from the RCTs,38%
same,risk reduction for ischemic strokes,patients with CAD; pooling HRs from the RCTs,62%
same,risk reduction for urgent coronary revascularization,patients with CAD; pooling HRs from the RCTs,44%
